Experimental data reported in patent US11498923B2 (Merck Sharp & Dohme Corp., priority 2017, dated 2022).
Where two headings read alike, the source gives them in different places.

Target: T1, human A2a receptor (Homo sapiens, UniProt P29274)
T1 construct: purchased Perkin-Elmer RBHA2AM400UA; host or cells: HEK293 cells, used as a membrane preparation
Assay: A2a receptor competition binding assay (Scintillation Proximity)
Conditions: membranes from HEK293 cells expressing human A2a receptor, 0.5 nM tritiated ligand, Cheng-Prusoff
How it was run: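 HEK293 membranes bearing the human receptor, pretreated with adenosine deaminase, competed against 0.5 nM tritiated pyrazolotriazolopyrimidine antagonist with compound at 3000–0.15 nM final in DPBS plus 10 mM MgCl2. SPA bead readout after 1 h at room temperature; Ki from EC50 via Cheng-Prusoff.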

T1 sequence (P29274 whole entry): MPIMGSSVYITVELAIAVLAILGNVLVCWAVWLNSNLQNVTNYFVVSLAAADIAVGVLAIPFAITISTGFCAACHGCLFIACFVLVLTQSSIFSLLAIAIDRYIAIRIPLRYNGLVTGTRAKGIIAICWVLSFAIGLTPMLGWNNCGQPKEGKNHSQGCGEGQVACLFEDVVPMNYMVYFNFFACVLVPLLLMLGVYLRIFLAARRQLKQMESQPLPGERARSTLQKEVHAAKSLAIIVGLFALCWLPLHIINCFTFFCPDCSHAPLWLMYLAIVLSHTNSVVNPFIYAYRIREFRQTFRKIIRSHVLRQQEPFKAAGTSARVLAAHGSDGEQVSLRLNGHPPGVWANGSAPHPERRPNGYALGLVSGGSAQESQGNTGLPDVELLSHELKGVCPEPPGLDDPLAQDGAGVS

Q: How did the Ki (read-out: A2a Ki) turn out when `CN(Cc1cccc2cccnc12)C(=O)c1cn2c(N)nc3ccccc3c2n1` [Ex-160, 5-amino-N-methyl-N-(quinolin-8-ylmethyl)imidazo[1,2-c]quinazoline-2-carboxamide] was run?
A: The Ki was 80.6 nM.

Q: How did the Ki (read-out: A2a Ki) turn out when `Nc1nc2ccccc2c2nc(C(=O)NCc3cccc4cccnc34)cn12` [Ex-161, 5-amino-N-(quinolin-8-ylmethyl)-imidazo-[1,2-c]-quinazoline-2-carboxamide] was run?
A: Its Ki is 39.4 nM.

Q: How did the Ki (read-out: A2a Ki) turn out when `CN(Cc1cccc2cccnc12)C(=O)c1cn2c(N)nc3c(F)cccc3c2n1` [Ex-162, 5-amino-7-fluoro-N-methyl-N-(quinolin-8-ylmethyl)imidazo[1,2-c]quinazoline-2-carboxamide] was run?
A: Its Ki is 29.7 nM.

Q: For `Nc1nc2c(F)cccc2c2nc(C(=O)NCc3cccc4cccnc34)cn12` [Ex-163, 5-amino-7-fluoro-N-(quinolin-8-ylmethyl)imidazo[1,2-c]quinazoline-2-carboxamide], which Ki (read-out: A2a Ki) is on record?
A: The Ki was 12.8 nM.

Q: With `COc1ccc(CNc2nc3c(F)cccc3c3nc(C(=O)N4Cc5ccc(Br)cc5C4)cn23)c(OC)c1` [Ex-164, (5-bromoisoindolin-2-yl)(5-((2,4-dimethoxybenzyl)amino)-7-fluoroimidazo[1,2-c]quinazolin-2-yl)methanone] as the compound, how does the Ki (read-out: A2a Ki) read?
A: The Ki was > 2200 nM.

Q: `Nc1nc2ccccc2c2nc(C(=O)N3CCN(c4ccc(F)cc4F)CC3)cn12` [Ex-165, (5-aminoimidazo[1,2-c]quinazolin-2-yl)(4-(2,4-difluorophenyl)piperazin-1-yl)methanone] was tested. Which Ki (read-out: A2a Ki) did it give?
A: The Ki was 10000 nM.

Q: Which Ki (read-out: A2a Ki) does the source give for `Nc1nc2c(F)cccc2c2nc(C(=O)NCC(c3cccnc3)N3CCOCC3)cn12` (centres unmarked) [Ex-166, 5-amino-7-fluoro-N-(2-morpholino-2-(pyridin-3-yl)ethyl)imidazo[1,2-c]quinazoline-2-carboxamide] here?
A: The Ki was 1400 nM.

Q: `COc1cccc2c1nc(N)n1cc(C(=O)N3CC(C)CC(C)C3)nc21` (centres unmarked) [Ex-167, (5-amino-7-methoxyimidazo[1,2-c]quinazolin-2-yl)(3,5-dimethylpiperidin-1-yl)methanone] was tested. Which Ki (read-out: A2a Ki) did it give?
A: Its Ki is 16 nM.

Q: Which Ki (read-out: A2a Ki) does the source give for `COc1cccc2c1nc(N)n1cc(C(=O)N3CCC(F)(F)CC3)nc21` [Ex-168, (5-amino-7-methoxyimidazo[1,2-c]quinazolin-2-yl)(4,4-difluoropiperidin-1-yl)methanone] here?
A: Its Ki is 81 nM.

Q: With `COc1cccc2c1nc(N)n1cc(C(=O)N3CCCC(OC)C3)nc21` (centres unmarked) [Ex-169, (5-amino-7-methoxyimidazo[1,2-c]quinazolin-2-yl)(3-methoxypiperidin-1-yl)methanone] as the compound, how does the Ki (read-out: A2a Ki) read?
A: Its Ki is 34 nM.

Q: Which Ki (read-out: A2a Ki) does the source give for `COc1cccc2c1nc(N)n1cc(C(=O)N3CCCC(C)C3)nc21` (centres unmarked) [Ex-170, (5-amino-7-methoxyimidazo[1,2-c]quinazolin-2-yl)(3-methylpiperidin-1-yl)methanone] here?
A: Its Ki is 11.5 nM.

Q: How did the Ki (read-out: A2a Ki) turn out when `COc1cccc2c1nc(N)n1cc(C(=O)N3CCCC(F)C3)nc21` (centres unmarked) [Ex-171, (5-amino-7-methoxyimidazo[1,2-c]quinazolin-2-yl)(3-fluoropiperidin-1-yl)methanone] was run?
A: The Ki was 20 nM.

Q: Which Ki (read-out: A2a Ki) does the source give for `COc1cccc2c1nc(N)n1cc(C(=O)N3CCCC(F)(F)C3)nc21` [Ex-172, (5-amino-7-methoxyimidazo[1,2-c]quinazolin-2-yl)(3,3-difluoropiperidin-1-yl)methanone] here?
A: The Ki was 18 nM.

Q: `COc1cccc2c1nc(N)n1cc(C(=O)N3CCCC(C(F)(F)F)C3)nc21` (centres unmarked) [Ex-173, (5-amino-7-methoxyimidazo[1,2-c]quinazolin-2-yl)(3-(trifluoromethyl)piperidin-1-yl)methanone] was tested. Which Ki (read-out: A2a Ki) did it give?
A: Its Ki is 31 nM.

Q: `COc1cccc2c1nc(N)n1cc(C(=O)N3CCCC4(CC4)C3)nc21` [Ex-174, (5-amino-7-methoxyimidazo[1,2-c]quinazolin-2-yl)(5-azaspiro[2.5]octan-5-yl)methanone] was tested. Which Ki (read-out: A2a Ki) did it give?
A: The Ki was 2.3 nM.

Q: How did the Ki (read-out: A2a Ki) turn out when `COc1cccc2c1nc(N)n1cc(C(=O)N3C[C@@H](F)[C@H](F)C3)nc21` [Ex-175, (5-amino-7-methoxyimidazo[1,2-c]quinazolin-2-yl)((3R,4R)-3,4-difluoropyrrolidin-1-yl)methanone] was run?
A: The Ki was 21 nM.

Q: `COc1cccc2c1nc(N)n1cc(C(=O)N3CCCC(C)CC3)nc21` (centres unmarked) [Ex-176, (5-amino-7-methoxyimidazo[1,2-c]quinazolin-2-yl)(4-methylazepan-1-yl)methanone] was tested. Which Ki (read-out: A2a Ki) did it give?
A: Its Ki is 10 nM.

Q: `COc1cccc2c1nc(N)n1cc(C(=O)N3CCCOCC3)nc21` [Ex-177, (5-amino-7-methoxyimidazo[1,2-c]quinazolin-2-yl)(1,4-oxazepan-4-yl)methanone] was tested. Which Ki (read-out: A2a Ki) did it give?
A: Its Ki is 49 nM.

Q: Which Ki (read-out: A2a Ki) does the source give for `COc1cccc2c1nc(N)n1cc(C(=O)N3CCCC(F)(F)CC3)nc21` [Ex-178, (5-amino-7-methoxyimidazo[1,2-c]quinazolin-2-yl)(4,4-difluoroazepan-1-yl)methanone] here?
A: The Ki was 27 nM.

Q: How did the Ki (read-out: A2a Ki) turn out when `COc1cccc2c1nc(N)n1cc(C(=O)N3CCCC(=O)CC3)nc21` [Ex-179, 1-(5-amino-7-methoxyimidazo[1,2-c]quinazoline-2-carbonyl)azepan-4-one] was run?
A: Its Ki is 31 nM.

Q: With `COc1cccc2c1nc(N)n1cc(C(=O)N3C[C@@H](C)O[C@@H](C)C3)nc21` [Ex-180, (5-amino-7-methoxyimidazo[1,2-c]quinazolin-2-yl)((2R,6S)-2,6-dimethylmorpholino) methanone] as the compound, how does the Ki (read-out: A2a Ki) read?
A: The Ki was 53 nM.

Q: For `COc1cccc2c1nc(N)n1cc(C(=O)N3CCO[C@H](C)C3)nc21` [Ex-181, (R)-(5-amino-7-methoxyimidazo[1,2-c]quinazolin-2-yl)(2-methylmorpholino) methanone], which Ki (read-out: A2a Ki) is on record?
A: The Ki was 110 nM.

Q: For `COc1cccc2c1nc(N)n1cc(C(=O)N3CCO[C@@H](C)C3)nc21` [Ex-182, (S)-(5-amino-7-methoxyimidazo[1,2-c]quinazolin-2-yl)(2-methylmorpholino) methanone], which Ki (read-out: A2a Ki) is on record?
A: Its Ki is 75 nM.

Q: Which Ki (read-out: A2a Ki) does the source give for `COc1cccc2c1nc(N)n1cc(C(=O)N3CCOC[C@H]3C)nc21` [Ex-183, (R)-(5-amino-7-methoxyimidazo[1,2-c]quinazolin-2-yl)(3-methylmorpholino) methanone] here?
A: The Ki was 126 nM.

Q: How did the Ki (read-out: A2a Ki) turn out when `COc1cccc2c1nc(N)n1cc(C(=O)N3CCOC[C@@H]3C)nc21` [Ex-184, (S)-(5-amino-7-methoxyimidazo[1,2-c]quinazolin-2-yl)(3-methylmorpholino) methanone] was run?
A: Its Ki is 90 nM.

Q: With `COc1cccc2c1nc(N)n1cc(C(=O)N3CCOC(C(F)(F)F)C3)nc21` (centres unmarked) [Ex-185, (5-amino-7-methoxyimidazo[1,2-c]quinazolin-2-yl)(2-(trifluoromethyl)morpholino) methanone] as the compound, how does the Ki (read-out: A2a Ki) read?
A: The Ki was 65 nM.

Q: How did the Ki (read-out: A2a Ki) turn out when `COc1cccc2c1nc(N)n1cc(C(=O)N3CCOCC3CC(C)C)nc21` (centres unmarked) [Ex-186, (5-amino-7-methoxyimidazo[1,2-c]quinazolin-2-yl)(3-isobutylmorpholino) methanone] was run?
A: The Ki was 53.8 nM.

Q: For `COc1cccc2c1nc(N)n1cc(C(=O)N3CCOC(C)(C)C3)nc21` [Ex-187, (5-amino-7-methoxyimidazo[1,2-c]quinazolin-2-yl)(2,2-dimethylmorpholino) methanone], which Ki (read-out: A2a Ki) is on record?
A: Its Ki is 190 nM.

Q: With `COc1cccc2c1nc(N)n1cc(C(=O)N3CCC4(CC3)OCCO4)nc21` [Ex-188, (5-amino-7-methoxyimidazo[1,2-c]quinazolin-2-yl)(1,4-dioxa-8-azaspiro[4.5]decan-8-yl)methanone] as the compound, how does the Ki (A2a Ki) read?
A: The Ki was 54 nM.

Q: `COc1cccc2c1nc(N)n1cc(C(=O)N3CCCC(C)(C)C3)nc21` [Ex-189, (5-amino-7-methoxyimidazo[1,2-c]quinazolin-2-yl)(3,3-dimethylpiperidin-1-yl)methanone] was tested. Which Ki (read-out: A2a Ki) did it give?
A: Its Ki is 4.5 nM.

Q: With `COc1cccc2c1nc(N)n1cc(C(=O)N3CCCCC3)nc21` [Ex-190, (5-amino-7-methoxyimidazo[1,2-c]quinazolin-2-yl)(piperidin-1-yl)methanone] as the compound, how does the Ki (read-out: A2a Ki) read?
A: The Ki was 21 nM.

Q: For `COc1cccc2c1nc(N)n1cc(C(=O)N3CCCC(CO)C3)nc21` (centres unmarked) [Ex-191, (5-amino-7-methoxyimidazo[1,2-c]quinazolin-2-yl)(3-(hydroxymethyl)piperidin-1-yl)methanone], which Ki (read-out: A2a Ki) is on record?
A: Its Ki is 23 nM.

Q: Which Ki (read-out: A2a Ki) does the source give for `COc1cccc2c1nc(N)n1cc(C(=O)N3CCC4CCCCC4C3)nc21` (centres unmarked) [Ex-192, (5-amino-7-methoxyimidazo[1,2-c]quinazolin-2-yl)(octahydroisoquinolin-2(1H)-yl)methanone] here?
A: The Ki was 11 nM.

Q: How did the Ki (read-out: A2a Ki) turn out when `COc1cccc2c1nc(N)n1cc(C(=O)N3CCC(C)CC3)nc21` [Ex-193, (5-amino-7-methoxyimidazo[1,2-c]quinazolin-2-yl)(4-methylpiperidin-1-yl)methanone] was run?
A: The Ki was 13 nM.

Q: For `CCN(CC)C(=O)C1CCCN(C(=O)c2cn3c(N)nc4c(OC)cccc4c3n2)C1` (centres unmarked) [Ex-194, 1-(5-amino-7-methoxyimidazo[1,2-c]quinazoline-2-carbonyl)-N,N-diethylpiperidine-3-carboxamide], which Ki (read-out: A2a Ki) is on record?
A: Its Ki is 21 nM.

Q: `COc1cccc2c1nc(N)n1cc(C(=O)N3CCCCC3C)nc21` (centres unmarked) [Ex-195, (5-amino-7-methoxyimidazo[1,2-c]quinazolin-2-yl)(2-methylpiperidin-1-yl)methanone] was tested. Which Ki (read-out: A2a Ki) did it give?
A: The Ki was 10 nM.

Q: With `COc1cccc2c1nc(N)n1cc(C(=O)N3CCC(C(C)C)CC3)nc21` [Ex-196, (5-amino-7-methoxyimidazo[1,2-c]quinazolin-2-yl)(4-isopropylpiperidin-1-yl)methanone] as the compound, how does the Ki (read-out: A2a Ki) read?
A: Its Ki is 11 nM.

Q: How did the Ki (read-out: A2a Ki) turn out when `COc1cccc2c1nc(N)n1cc(C(=O)N3CCC4(CCOC4)CC3)nc21` [Ex-197, (5-amino-7-methoxyimidazo[1,2-c]quinazolin-2-yl)(2-oxa-8-azaspiro[4.5]decan-8-yl)methanone] was run?
A: The Ki was 22 nM.

Q: Which Ki (read-out: A2a Ki) does the source give for `COc1cccc2c1nc(N)n1cc(C(=O)N3CCCCC34CC4)nc21` [Ex-198, (5-amino-7-methoxyimidazo[1,2-c]quinazolin-2-yl)(4-azaspiro[2.5]octan-4-yl)methanone] here?
A: The Ki was 5.6 nM.

Q: With `COc1cccc2c1nc(N)n1cc(C(=O)N3CCC(=O)C(C(C)C)C3)nc21` (centres unmarked) [Ex-199, 1-(5-amino-7-methoxyimidazo[1,2-c]quinazoline-2-carbonyl)-3-isopropylpiperidin-4-one] as the compound, how does the Ki (read-out: A2a Ki) read?
A: The Ki was 260 nM.

Q: `COc1cccc2c1nc(N)n1cc(C(=O)N3CCCC4(CCC4)C3)nc21` [Ex-200, (5-amino-7-methoxyimidazo[1,2-c]quinazolin-2-yl)(6-azaspiro[3.5]nonan-6-yl)methanone] was tested. Which Ki (read-out: A2a Ki) did it give?
A: The Ki was 4.6 nM.
